Data on one compound can be found in US6407125B1, “Pharmacological agent and method of treatment” (Novactyl, Inc., priority 1995, dated 2002).

One data set relates to transformed cells. Particulars: cited from earlier work.
A short description of data set [1]: Nasal spray treatment of upper respiratory infection. The data set is classed as in vivo, human. Particulars: nasal spray 3 mM in physiologic saline, evening and bedtime, upon arising. The procedure: A college student presented with nasal congestion, slight fever, cough and sore throat. The subject began treatment with nasal spray containing 3 mM picolinic acid in physiologic saline vehicle. The subject used one or two sprays in each nostril after evening meal and before bedtime.

The next data set concerns metastatic breast cancer. As to the kind of experiment: Topical treatment of metastatic breast cancer to skin and bone of the skull. Particulars: 10% in Aquaphor, changed twice daily, approximately 35 days. The data set is classed as in vivo, human. The procedure: A person with metastatic breast cancer to the skin and bone of the skull was treated with a topical preparation of 10% picolinic acid in Aquaphor. The preparation was applied to the cancerous lesions and to a bandage and changed twice daily. The multiple cancer lesions were approximately 1 to 1.5 cm in diameter.

Data set [2] is described as follows: Stability experiments as preservative in foods and on fresh fruits. Format: physicochemical. Particulars: in foods and on the surface of fresh fruits. The source says:
The chelating agents of the present invention can be used as preservatives in perishable items such as foods and pharmaceuticals and to prevent fungal growth on the surface of fresh fruits. Presently chemicals such as citrashine orthophenilphenol thiabendazole are used. […] Microbial and fungal growth is inhibited while the food components are unaffected. The preservative of the present invention has less likelihood of toxicity or untoward reactions if ingested that the present, complex chemical antifungals. The preferred concentration of picolinic acid or acceptable derivative for this use is approximately below 0.025% to be classified as a preservative. Of course, greater percentages, e.g. up to 99.9% also would be effective.

Data set [3] can be described thus: Topical treatment of inflammation associated with acne. Particulars: 5% to 10% aqueous solution; more than 35 cases, adults and teenagers. The data set is classed as in vivo. The source says:
(§1) Furthermore, it is believed that the response of cells to stress, such as exposure to UV radiation, chemicals, bacteria, parasites or fungi is associated with the induction of heat shock proteins.

A further data set deals with recombinant MPS-1 (Homo sapiens, UniProt P42677). As to the kind of experiment: Gel shift assay of zinc dependent binding of recombinant MPS-1 to DNA; 65Zn removal from MPS-1. Format: biochemical. From the text: MPS-1 is a ubiquitous tumor marker and cell growth stimulator and is described in detail in the inventor's U.S. Pat. No. Re.35,585 (U.S. Pat. No. 5,243,041). MPS-1 has one zinc finger domain of the type CCCC. […] This is detected by a change in the electrophoretic mobility of MPS-1 under non-denaturing conditions. These experiments indicate that picolinic acid and derivatives should remove zinc and denature various types of zinc finger or zinc ring proteins, whether known or heretofore undiscovered, including viral proteins such as nucleocapsid p7 proteins, as will be explained further. Furthermore, the inventor has determined that any chemical compound, whether known or heretofore undiscovered, that will remove the zinc (or other metal) and denature the proteins or that will form a ternary complex (protein-zinc-chelator) can be effective as a therapeutic agent or as an autologous immune response modulator, as will be discussed in greater detail below.
(Mobility shift assays separate free from complexed probe on a gel.)

The next data set has as its system WI-38 cells. As to the kind of experiment: Growth of WI-38 cells (total cell protein, cell number). Format: cell-based. Particulars: 3 mM picolinic acid. The procedure:
(§2) Cells were plated at 1.5×10^5 cells/60-mm dish; 48 hours later, the medium was removed, and new media with or without 3 mM picolinic acid was added. Total cell protein was determined at the indicated times; each point is the average of triplicate measurements from 2 cultures.
(§3) In initial experiments to examine the effects of fusaric acid on cell growth and viability, WI-38 and LoVo cells were incubated for 24 to 72 hours in medium with or without various doses of fusaric acid (0.1-1 mM). The growth of both WI-38 and LoVo cells was inhibited by 500 μM fusaric acid in a time and dose dependent manner, as shown below in Table 2.

The conditions of data set [4]: in a 70 Kg subject; cited from earlier work.
For another data set, the system named is papilloma virus. As to the kind of experiment: Topical treatment of ulcerative papilloma virus lesion in a horse. Format: in vivo. Particulars: for diameter of the lesion: initially 3 inch. The procedure: The lesion was progressive, with total loss of hair over the area. The diagnosis was viral disease, i.e. papilloma virus, complicated by fungal infection. The horse was treated with conventional local antibiotic and chemical therapies for about four months.
An aqueous solution of 10% picolinic acid in deionized water was applied every other day with a cotton swab over and around the lesion. The treatment continued for 45 days. The course of the regression of the viral lesion was as follows: […]

A further data set has as its system LoVo cells. As to the kind of experiment: Growth of LoVo cells (total cell protein, cell number, DNA synthesis). The data set is classed as cell-based, human. Particulars: 3 mM picolinic acid. The procedure:
as §2, §3
After 30 hours of treatment with 500 μM fusaric acid, there was a prominent decrease in cell number. DNA synthesis was completely (100%) inhibited by 24 hours. When treated with 500 μM fusaric acid, the majority of the LoVo cells acquired a rounded morphology by 48 hours.
However, after 100 hours, an increase in cell number was noted after 25 additional hours.

Data set [5] can be described thus: Topical treatment of sunburn. Format: in vivo. Particulars: 1%, 5% or 10% picolinic acid in absorption base; over 25 cases.
Source text: as §1

In a further data set the test system is lymphoma. As to the kind of experiment: Oral treatment of lymphoma and impaired immunity. Format: in vivo, human. Particulars: oral 2000 to 4000 mg per day. The procedure: The patient was a person with a history of lymphoma and impaired immunity. The patient had received standard therapy for lymphoma including the CHOP regimen. […] The patient contracted pneumonia three or four times per year and suffered from chronic otitis, chronic sinusitis and chronic Herpes Zoster infections.
The patient was treated with oral picolinic acid starting at 2000 mg per day and increased to 4000 mg per day divided equally in four doses. […] Their immunoglobulin levels rose to 3.3. Their chronic ear and sinus infections and pneumonia resolved concurrently. The Herpes Zoster disappeared.

For data set [6] the following is noted: cited from earlier work.
For another data set, the system named is osteosarcoma. As to the kind of experiment: Oral treatment of osteosarcoma in canine. The data set is classed as in vivo, dog. Particulars: 500 mg capsules twice daily, six days after initiating treatment. The method, then:
The subject animal was a Bichon Frise dog that was diagnosed by a veterinarian with osteosarcoma. The osteosarcoma had invaded the dog's mandible and was encroaching on the lower portion of the orbit. The veterinarian began treatment with picolinic acid. The dog was administered 500 mg of picolinic acid, in capsules, twice daily. Six days after initiating treatment the veterinarian documented that the osteosarcoma had reduced approximately 40% in size. One week later the veterinarian observed that the tumor looked “necrotic”. The veterinarian incised the skin above the tumor and removed fluid from the center of the tumor.

SMILES strings stand for the structures.

On to `O=C(O)c1ccccn1` [picolinic acid, 2-Pyridine carboxylic acid], for which the “cytotoxicity in transformed cells” value in the data set on transformed cells is “cytotoxicity and cell death”. In addition, in [1], the upper respiratory symptoms result is “no fever or sore throat symptoms”. Besides, in the data set with metastatic breast cancer, the cancer lesion outcome was “resolved with scar tissue forming”. Besides, in data set [2], the “stability as a preservative” value is “highly stable”. Moreover, in [3], the “treatment of inflammation associated with acne” value is listed as “successfully treated”. Besides, on recombinant MPS-1 (CCCC zinc finger, change in electrophoretic mobility, non-denaturing conditions), the “removal of radioactive 65Zn from MPS-1” value was “remove radioactive 65Zn from MPS-1”. Further, the “zinc dependent binding of recombinant MPS-1 to DNA” value on recombinant MPS-1 (gel shift assays) is reported as “inhibit the zinc dependent binding of recombinant MPS-1 to DNA”. The “toxic effects on WI-38 cells” value in the data set with WI-38 cells (up to 72 hours of treatment) was “no toxic effects”. In the data set with WI-38 cells (within 24 hours), the “growth of WI-38 cells” value is reported as “inhibited”. Further, in the data set on WI-38 cells (within 24 hours of removal of the agent), the “reversibility of growth inhibition” value is “reversible”. Moreover, the LD-50 in data set [4] was 140 grams. Besides, the lesion appearance entry in the data set on papilloma virus (10% aqueous solution every other day, after 10 days) was “central necrosis”. In addition, the “diameter of the lesion” value in the data set with papilloma virus (10% aqueous solution, after 20 days) was “approximately 2 inches”; with papilloma virus (10% aqueous solution, after 30 days) it was “about 1 inch”. The lesion outcome with papilloma virus (10% aqueous solution, at 45 days) is on record as “resolved with some scar tissue”. Besides, the recurrence result with papilloma virus (three additional months after treatment) is listed as “without evidence of recurring disease”. In addition, the “growth of LoVo cells” value in the data set with LoVo cells was “inhibited”. The treatment of sunburn result in [5] is “successfully used”. In the data set on lymphoma, the “chronic ear and sinus infections and pneumonia” value is on record as “resolved”. In addition, the lymphoma response entry in the data set on lymphoma (approximately two weeks) is given as “reduction in size of lymph nodes”. Further, the immunoglobulin levels in the data set on lymphoma (before treatment 0.6 to 0.7) is listed as 3.3. The solubility in water result in data set [6] is given as “readily soluble in water”. For the same compound, the “reduction in size of osteosarcoma” value with osteosarcoma was “approximately 40%”.
